# Values quoted from earlier work, collected in patent US20100028276A1, “SUNSCREEN COMPOSITIONS” (priority 2007, published 2010).
# Key:
# [1] = uterine wet weight, cell height, cell proliferation assays
SMILES,estrogenicity [1],effect on growth of cancer cells (cancer cells)
"Cc1ccc(C=C2C(=O)C3(C)CCC2C3(C)C)cc1 (stereo not drawn) [4-methyl-benzylidene camphor, 3-(4-methylbenxylidene) camphor]",highly estrogenic,made cancer cells grow more rapidly
CC1CC(OC(=O)c2ccccc2O)CC(C)(C)C1 (stereo not drawn) [homosalate],,made cancer cells grow more rapidly
CCCCC(CC)COC(=O)c1ccc(N(C)C)cc1 (stereo not drawn) [octyl-dimethyl-PABA],,made cancer cells grow more rapidly
"COc1ccc(C(=O)c2ccccc2)c(O)c1 [benzophenone-s, Benzophenone-3]",highly estrogenic,made cancer cells grow more rapidly
